Results on three compounds are retold here after patent publication US8916559B2, “Crystalline compound of 7-[(3R)-3-amino-1-oxo-4-(2, 4, 5-trifluorophenyl)butyl]-5, 6, 7, 8-tetrahydro-3-(tri fluoromethyl)-1, 2, 4 -triazolo[4,3-A]pyrazin” (Sandoz AG, priority 2009, dated 2014).

Counter-ions that a name gives are not always drawn.

Series [1] can be described thus: Dynamic water vapor sorption measurements (hygroscopicity). It is filed as physicochemical. The note with it: for H2O content at 50% r.h. / H2O content at 90% r.h.: dynamic water vapor sorption; for H2O content at 90% r.h.: 90% relative humidity; for hygroscopic behaviour (water adsorption, in words): identical measurement conditions, high relative humidities. An excerpt:
Amorphous or mesomorphous forms of a compound can have a very much stronger tendency toward hygroscopicity than crystalline forms. The sitagliptin fumarate compounds described here are characterized in that they have good hygroscopic properties, i.e. absorb little water at high relative humidity. This is evident from table 1 below, which compares the water contents of the crystalline fumarate form A and crystalline hydrochloride at 50% and 90% relative humidity. The data originate from dynamic water vapor adsorption measurements. The water vapor sorption measurement is a suitable method for investigating the hygroscopic properties of solid substances. Water vapor sorption measurements can be carried out in different ways. In general, in this connection, a small sample of ca. 10-30 mg is introduced into a microbalance in a suitable sample carrier. The sample is then exposed to different relative humidities in accordance with a defined program, the change in the sample mass being simultaneously recorded over the time. As a result, insights into the hygroscopic behavior of a substance can be obtained.
Dynamic water vapor adsorption measurements were carried out using an SPS11-100n instrument, manufactured by “Projekt Messtechnik” in Ulm, Germany. For this, ca. 20 mg of the sample were weighed into an aluminum support and this was inserted into the measurement chamber of the instrument. The sample was then subjected to preselected relative humidities in accordance with a defined program, the change in mass being determined over the time. The following measurement program was used: 50% r.h. constant for two hours, then changing the relative humidity to 0% r.h., then changing the relative humidity to 96% r.h., constant at 96% r.h. for four hours and then changing the relative humidity to 50% r.h. and then constant at 50% r.h. for one hour. The change rates set were in each case 5% per hour.

For series [2] the following is noted: at temperatures above 40° C.; hydrate of WO 2005/003135; cited from earlier work.
The conditions of series [3]: hydrochloride of WO 03/004498 A1; cited from earlier work.

`N[C@@H](CC(=O)N1CCn2c(nnc2C(F)(F)F)C1)Cc1cc(F)c(F)cc1F` [form A, 7-[(3R)-3-amino-1-oxo-4-(2,4,5-trifluorophenyl)butyl]-5,6,7,8-tetrahydro-3-(trifluoromethyl)-1,2,4-triazolo[4,3-a]pyrazine]: in series [1] (50% relative humidity), the “water content at 50% relative humidity” value is listed as “ca. 0.3%”. In series [1] (50% relative humidity, listed as Crystalline sitagliptin fumarate form A), the “H2O content at 50% r.h.” value amounted to 0.25%. For the same compound, the “H2O content at 90% r.h.” value in series [1] (listed as Crystalline sitagliptin fumarate form A) came to 1.33%. Also, the “additional water absorbed compared with 50% relative humidity” value in series [1] (after four hours at 96% relative humidity) is listed as “ca. 1%”. Besides, the “hygroscopic behaviour (water adsorption, in words)” value in series [1] is “absorbs only a small amount of water”.
Regarding `N[C@@H](CC(=O)N1CCn2c(nnc2C(F)(F)F)C1)Cc1cc(F)c(F)cc1F.O=P(O)(O)O` [sitagliptin dihydrogenphosphate salt], the “phase stability (in words)” value in series [2] is reported as “phase-unstable”.
Consider `N[C@@H](CC(=O)N1CCn2c(nnc2C(F)(F)F)C1)Cc1cc(F)c(F)cc1F` [sitagliptin hydrochloride], for which the “hygroscopicity (in words)” value in series [3] is “hygroscopic”. The “H2O content at 50% r.h.” value in series [1] (50% relative humidity, hydrochloride) is on record as more than 2.7%^. In addition, the “H2O content at 90% r.h.” value in series [1] (hydrochloride) is more than 3.6%^. Also, the “hygroscopic behaviour (water adsorption, in words)” value in series [1] (listed as crystalline sitagliptin hydrochloride monohydrate, hydrochloride) is reported as “adsorbs significantly more water”.
